Peptide text beside a SMILES is read from it. * marks the point of attachment. Cbz = O=C(OCc1ccccc1)*
How the values were obtained:
[1] = test system: Huh-7 cells; test: AAV2 FLAG-Luc transduction of Huh-7 cells; format: cell-based; settings: 20 to 80 μM
Source text: (§1) A. To screen for agents that enhance rAAV transduction, any number of cells can be used. A range of concentrations of the agent to be tested can be determined based on, for instance desirable profiles of the agent, desirable toxicity profiles of the agent and/or concentration of the agents employed in vivo. The usefulness of the cell type chosen for the screen can be confirmed by testing compounds, e.g., proteasome inhibitors such as LLnL and ZLL which are known to increase rAAV transduction. For example, a AAV2 FLAG-Luc vector was employed to transduce HeLa, ferret fibroblasts, IB3 and Huh (liver) cells in the presence or absence of the proteasome inhibitor MG132. MG132 was confirmed to enhance AAV transduction in all cell types tested: HeLa cell transduction was enhanced about 500-fold at 80 μM, and 200-fold at 40 μM, MG132; ferret fibroblast cell transduction was enhanced about 200-fold at 20 μM, and 17-fold at 4 μM, MG132; IB3-1 cell transduction was enhanced about 30 to 70-fold at 20 to 80 μM MG132; and Huh-7 cell transduction was enhanced about 15-fold at 20 to 80 μM MG132. There was no difference in rAAV transduction efficiency in HeLa cells when either DMSO or ETOH was used as a vehicle for MG132. B. HeLa cells were selected to screen for additional agents that enhance rAAV transduction, although any cell strain or line; or primary cells, may be employed. […]

[2] = test system: IB3-1 cells; test: AAV2 FLAG-Luc transduction of IB3-1 cells; format: cell-based, human; settings: 20 to 80 μM
Source text: as §1

[3] = test system: Balb/c mice; test: Safety of anthracyclines in Balb/c mice; format: in vivo, mouse; settings: intranasal, 10% HDE
Source text: Animals were followed for seven days post dose.
Safety endpoints included morbidity and mortality, clinical observations, body weights, gross necropsy observations and histopathology. Transduction endpoints included luciferase and GFP analysis.

[4] = test system: polarized human airway epithelial cells; format: cell-based
Protocol: Primary culture of human bronchial epithelia and reagents utilized. Primary human airway epithelial cells were collected by enzymatic digestion of bronchial samples from lung transplants, as previously described (Kondo et al., 1991; Zabner et al., 1996). Isolated primary airway cells were seeded at a density of 5×10^5 cells/cm^2 onto collagen-coated Millicell-HA culture inserts (Millipore Corp., Bedford, Mass.). Primary cultures were grown at the air-liquid interface for more than 2 weeks, by which time differentiation into a mucociliary epithelium occurs. The culture medium, used to feed only the basolateral side of the cells, contained 49% DMEM, 49% Ham's F12 and 2% Ultraser G (BioSepra, Cedex, France). Dimethyl Sulphoxide (DMSO), camptothecin (Camp), etoposide (Etop), aphidicolin (Aphi), hydroxyurea (HU) and genistein (Geni) were purchased from Sigma (St. Louis, Mo.). Tripeptidyl aldehyde proteasome inhibitors N-Acetyl-L-Leucyl-L-Leucyl-Norleucine (LLnL) and benzyloxycarbonyl-L-leucyl-L-leucyl-L-leucinal (Z-LLL) were purchased from Calbiochem-Novabiochem Corporation (La Jolla, Calif.). Ubiquitin ligase (E3) inhibitors were obtained from Bachem Bioscience Inc. (King of Prussia, Pa.). Anti-AAV capsid monoclonal antibody (Anti-VP1, 2 and 3) was purchased from American Research Products (Belmont, Mass.) and anti-ubiquitin antibody was purchased from Santa Cruz Biotechnology Inc. (Santa Cruz, Calif.).
Transduction of polarized airway epithelial cells and primary human fibroblasts. rAAV infection of fully differentiated bronchial cells was performed as described in Duan et al. (1998). For infections from the apical surface of the airway cells, 5 μl rAAV was mixed with 50 μl of culture media and applied directly onto the apical compartment of Millicell inserts (MOI=10,000 particles/cell). During apical infection, the basolateral side of the Millicell was continuously bathed in culture media. Gene transfer to the basal side was performed by inverting Millicell inserts and applying viral vector to the bottom of the supporting filter membrane in a 50 μl volume for 2 hours. Subsequently, Millicell inserts were returned to the upright position, in the continued presence of the original viral inoculum plus an additional 450 μl of media. For both apical and basolateral infections, rAAV containing media was removed after 24 hours and replaced with either fresh culture media (for the basal side) or exposed to air (for the apical side). To test the effect of different agents on the efficiency of AAV transduction in polarized airway cells, 1 μl of each solution was mixed with AAV prior to infection of airway epithelia. Agents were usually presented during the 24 hours AAV infection period unless indicated otherwise. Most of the agents were dissolved in DMSO except for hydroxyurea (dissolved in phosphate buffered saline), H-Leu-Ala-OH (dissolved in 0.9% glacial acetic acid) and H-His-Ala-OH (dissolved in 50% methanol). The working concentrations of the agents were as follows: 0.1 μM camptothecin, 10 μM etoposide, 5 μg/ml aphidicolin, 40 mM hydroxyurea, 50 μM genistein, 40 μM LLnL and 4 μM Z-LLL. When the ubiquitin ligase (E3) inhibitors (H-Leu-Ala-OH and H-His-Ala-OH) were used, airway cells were pretreated with a combination of both inhibitors at a final concentration of 2 mM for 60 minutes prior to infection, followed by the continued presence of inhibitor (0.2 mM) during the entire 24 hours infection period from the basolateral surface. Studies involving EGTA treatment were performed by transiently treating the apical membrane of polarized airway epithelia with 3 mM EGTA in water for 10 minutes (Duan et al., 1998). Following hypotonic EGTA treatment, cultures were washed twice with culture medium and infected with rAAV in the presence or absence of 40 μM LLnL. Human primary fibroblast cells (P4) were maintained in 10% fetal bovine serum (FBS), 1% penicillin and streptomycin, and 89% DMEM. […]

[5] = Solubility in ethanol; format: physicochemical

## CC(C)C[C@@H](C=O)NC(=O)[C@H](CC(C)C)NC(=O)[C@H](CC(C)C)NC(=O)OCc1ccccc1 [Z-LLL, N-carbobenzoxyl-L-leucinyl-L-leucinyl-L-leucinal] (Cbz-Leu-Leu-Leu-aldehyde)
[1]
  enhancement of Huh-7 cell transduction: about 15 fold
[2]
  enhancement of IB3-1 cell transduction: 30 to 70 fold

## COc1cccc2c1C(=O)c1c(O)c3c(c(O)c1C2=O)C[C@@](O)(C(=O)CO)C[C@@H]3O[C@H]1C[C@H](N)[C@H](O)[C@H](C)O1 [doxorubicin]
[3]; 7 days
  mortality and clinical observations: early mortality of some animals, ruffled hair coats and sick mice
[3]; over the week
  body weight: lost considerable body weight

## N-acetyl-L-leucinyl-L-leucinal-L-norleucinal [LLnL]
[4]; applied to the serosal surface along with rAAV, 2 days post infection, 40 μM LLnL
  augmentation in transgene expression: greater than 200 fold
[4]; co-administration with rAAV to the mucosal surface
  time of peak augmentation in AAV transduction: 22 days post-infection
[4]; continual administration after basolateral infection
  toxicity of continual administration: toxic to cells
[4]; rAAV infection from the serosal surface
  time of transient peak in gene expression: 72 hours post-infection
[5]
  solubility in ethanol: poor solubility
